From patent US10647752B2, “Polypeptides capable of inhibiting the binding between leptin and Neuropilin-1” (INSERM (Institut National de la Sante et de la Recherche …, priority 2015, dated 2020)
“Also recorded” adds a separate entry of the source.

Assays:
NRP-1 = biological target: T1, NRP-1 (Homo sapiens, UniProt O14786); assay: Bio-layer interferometry (BLI) protein:protein interaction with NRP-1; assay type: binding; conditions: for competition between leptin and VEGF for binding to NRP-1: BLI competition experiment; for interaction (binding) with NRP-1 by BLI: recombinant proteins, extracellular domain of recombinant NRP-1 for the peptide
T1 construct: the extracellular domain of the recombinant protein NRP-1 from RnD systems; purchased RnD systems
Method: Bio-Layer Interferometry Bio-layer interferometry (BLI) is a label-free technique that is sensitive to an increase of mass bound to the biosensor enabling protein-protein interaction characterization. Ligands preparation: proteins were incubated in a PBS buffer with a 1:3 ratio molar ratio of biotin (biotin-PEG4-NHS from Pierce EZ kit, prepared following the manufacturer's instructions). Free biotin was removed using a desalting column (Pierce). The biotinylated protein (called ligand) was immobilized onto streptavidin biosensor tips and dipped into wells containing the buffer with the analyte of interest (association) or without (dissociation). Experimental conditions were as follow: total volume in each well: 200 μl; shake speed: 1,000 rpm. For simple protein:protein interactions an association phase was followed by a dissociation phase. For competition experiments, the association phase was followed by another association phase with a second analyte instead of a dissociation phase. Sensorgrams were background corrected, smoothed with the Savitzky-Golay algorithm and analyzed using OctetRED instrument software (ForteBio Data Analysis version 7.1). Experimental sensorgrams were first fit to a 1:1 model. The 1:1 model was accepted if the Chi^2 test was below 3 and the R^2 was above 0.9. When the 1:1 model was rejected, the model with the lowest Chi^2 and the highest R^2 was then selected.

NRP-1/OBR complex = NRP-1/OBR complex detection in MDA-MB231 breast cancer cell line by proximity ligation assay (PLA); assay type: cell-based; conditions: MDA-MB231 cultivated in normal human serum, Avastin 40 μg/ml for 48 h, compared to untreated cells
Method: NRP-1 and OBR Complex Detection in MBA-MB231 Breast Cancer Cell Line by Immunocytochemistry Using a PLA Technology
The detection of NRP-1/OBR complex in human MDA-MB231 breast cancer cell line was assessed by proximity ligation assay (PLA) or duolink technology (www.olink.com). The detection of the NRP-1/OBR complex was assessed on MDA-MB231 cell line cultivated in normal human serum (human male AB plasma, USA origin, MDL number MFCD00165829 H4522 Sigma) and treated or not with Avastin 40 μg/ml final concentration for 48 h. The goal by using human serum was to mimic a physiologic condition during therapy with Avastin. The immunostained samples were analysed by the acquisition of the Z stacks through confocal microscopy on Zeiss LSM 700, Inverted confocal microscope. The acquired images were analyzed using Image J software for the quantification of NRP-1/OBR complex expressed by cells.

[1] = system: MDA-MB231 breast cancer cell line; assay: In vitro cell migration of MDA-MB231 breast cancer cell line; assay type: cell-based, human
[2] = system: Serine/Threonine casein kinase2 (CK2); assay: CK2 inhibition in breast cancer cell lines: NRP-1 and JAK2 phosphorylation and NRP-1/OBR complex formation; assay type: cell-based; conditions: MDA-MB231 / T47D breast cancer cell lines

Compound	NRP-1 and JAK2 phosphorylation [2]	formation of the NRP-1/OBR complex [2]	other results
leptin: cytokine-like hormone mainly produced by adipocytes; recombinant protein	–	–	competition between leptin and VEGF for binding to NRP-1 (NRP-1): do not compete with VEGF binding; interaction (binding) with NRP-1 by BLI (NRP-1): direct interaction
Avastin: Anti-VEGF (bevacizumab) antibody	–	–	number of NRP-1/OBR complex (NRP-1/OBR complex): increase of NRP-1/OBR complex detection; also recorded: high number of NRP-1/OBR complex; cell migration [1]: induces in vitro cell migration; also recorded: increased MDA-MB231 cell migration
Brc1c(Br)c(Br)c2n[nH]nc2c1Br [TBB]	prevented	prevented	–
O=C(O)c1ccc2c(c1)nc(Nc1cccc(Cl)c1)c1ccncc12 [CX4945]	prevented	prevented	–
ENLRDLLHVLAFSKSCHLPWASGLETL (listed as Homo sapiens) [SEQ ID:3]	–	–	interaction (binding) with NRP-1 by BLI (NRP-1): validated by BLI
VEGF	–	–	competition between leptin and VEGF for binding to NRP-1 (NRP-1): does not prevent leptin binding to NRP-1
OC[C@H]1O[C@@H](n2cnc3cc(Cl)c(Cl)cc32)[C@H](O)[C@@H]1O [DRB]	prevented	prevented	–
